Article doi:10.1101/2023.10.14.562361v1 (biorxiv, 2023)

How the values were obtained:
[1] = target: T1, Smurf1 HECT (Homo sapiens, UniProt Q9HCE7); assay: UbFluor fluorescence polarization assay; format: biochemical
[2] = system: Smurf1C2; assay: UbFluor fluorescence polarization assay; format: biochemical, Homo sapiens; settings: 0.5 µM enzyme, 2 µM UbFluor, pH 7.4, 0.01% Tween20
[3] = target: T1, Smurf1 HECT; assay: biolayer interferometry; format: binding
[4] = target: Smurf1 FL (Homo sapiens, UniProt Q9HCE7); assay: UbFluor fluorescence polarization assay; format: biochemical
Smurf1 FL, sequence (Q9HCE7 whole entry): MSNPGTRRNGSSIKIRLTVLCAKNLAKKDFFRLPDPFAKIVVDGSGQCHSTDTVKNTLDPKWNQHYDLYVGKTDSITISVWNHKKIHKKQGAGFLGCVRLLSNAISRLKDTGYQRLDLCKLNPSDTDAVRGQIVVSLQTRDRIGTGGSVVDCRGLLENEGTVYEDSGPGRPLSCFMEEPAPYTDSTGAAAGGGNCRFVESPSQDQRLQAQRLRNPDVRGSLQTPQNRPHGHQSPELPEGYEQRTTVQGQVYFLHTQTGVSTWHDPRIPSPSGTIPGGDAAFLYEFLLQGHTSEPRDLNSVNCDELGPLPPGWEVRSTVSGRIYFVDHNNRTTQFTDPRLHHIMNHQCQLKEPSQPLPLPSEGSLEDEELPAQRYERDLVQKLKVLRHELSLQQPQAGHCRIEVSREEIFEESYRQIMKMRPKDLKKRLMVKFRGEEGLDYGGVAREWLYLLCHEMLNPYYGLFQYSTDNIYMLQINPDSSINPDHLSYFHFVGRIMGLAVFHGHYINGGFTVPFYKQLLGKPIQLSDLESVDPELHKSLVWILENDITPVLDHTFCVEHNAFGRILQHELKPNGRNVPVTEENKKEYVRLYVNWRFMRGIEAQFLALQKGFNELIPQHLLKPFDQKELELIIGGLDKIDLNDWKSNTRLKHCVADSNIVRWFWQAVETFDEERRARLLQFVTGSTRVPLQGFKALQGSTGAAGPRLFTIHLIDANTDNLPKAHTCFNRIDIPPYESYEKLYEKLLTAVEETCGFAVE

T1 sequence (Q9HCE7 341-757): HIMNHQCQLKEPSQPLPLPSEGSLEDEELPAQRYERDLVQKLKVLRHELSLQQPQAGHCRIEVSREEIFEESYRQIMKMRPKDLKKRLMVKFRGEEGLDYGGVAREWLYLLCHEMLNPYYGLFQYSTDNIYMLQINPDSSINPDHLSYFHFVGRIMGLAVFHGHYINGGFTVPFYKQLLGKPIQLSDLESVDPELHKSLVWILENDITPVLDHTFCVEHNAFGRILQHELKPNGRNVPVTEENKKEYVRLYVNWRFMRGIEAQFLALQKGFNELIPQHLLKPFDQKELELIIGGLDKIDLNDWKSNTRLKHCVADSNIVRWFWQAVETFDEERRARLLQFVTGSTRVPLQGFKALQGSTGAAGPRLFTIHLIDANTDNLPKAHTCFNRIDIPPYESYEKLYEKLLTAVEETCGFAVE

Row | IC50 [1] [nM] | IC50 [2] [nM] | Kd [3] [µM] | IC50 [4] [nM] | SMILES
1 | 450 | 140 | 25.8 ± 2.2 | 230 | Cc1c(NC(=O)c2noc3c2CCSc2cc(OC(F)(F)F)ccc2-3)c(=O)n(C2CCCCC2)n1C [compound 1]
2 | – | 3100 | 54.5 ± 2 | – | Cc1c(C(=O)Nc2c(C)n(C)n(C3CCCCC3)c2=O)nnn1-c1ccc(OC(F)(F)F)cc1Cl [compound 2]
